From patent US8415342B2, “Besifloxacin ophthalmic composition for the treatment or control of infection” (Bausch & Lomb Incorporated, priority 2008, dated 2013)
Values after ≈ are worked out from the molar mass of the structure shown. Where two headings read alike, the source gives them in different places.

Assays:
[1] = Nonclinical ocular and systemic pharmacokinetics after topical ocular administration; type: in vivo; conditions: for peak plasma besifloxacin concentration, on average: topical ocular administration
From the text: Results from the nonclinical ocular pharmacokinetic (PK) studies indicate that topical ocular administration of besifloxacin ophthalmic suspension, 0.6%, is associated with rapid absorption and distribution of besifloxacin into ocular tissues. […] However, based on the extensive ocular safety data available for besifloxacin, no adverse consequences are expected.
Systemic exposure to besifloxacin following topical ocular administration was low, with peak plasma besifloxacin concentrations of 7.6 and 9.2 ng/mL, respectively, on average.

[2] = test system: S. aureus, S. pneumoniae, and H. influenzae; test: Time-kill studies; type: cell-based; conditions: S. pneumoniae, and H. influenzae (data not shown)
From the text: The success of in vivo antimicrobial action depends to a large extent on the host's defense mechanisms, which ultimately sequester and kill the microorganisms that have been reduced by the bacteriostatic/bactericidal action of the antibacterial agent. Thus, it is also of interest to profile the bactericidal activity of antimicrobial agents. The assessment of in vitro bactericidal activity can be accomplished in multiple ways, for example, the time-kill method or the determination of the minimum bactericidal concentration (MBC). […] Bactericidal agents are characterized by low MBC:MIC ratios.

[3] = test system: bacterial conjunctivitis; test: Study 434: besifloxacin ophthalmic suspension vs Vigamox, TID 5 days; type: in vivo, human; conditions: for Clinical Resolution (2 indices), No / Clinical Resolution (2 indices), Yes: mITT culture-confirmed as treated; for Microbial Eradication, No / Microbial Eradication, Yes: missing or discontinued imputed as no, as treated
[4] = test system: Pathogens Associated With Bacterial Conjunctivitis; test: Integrated besifloxacin MIC data from preclinical (nonclinical) studies (Table 8); type: cell-based
[5] = Visit 2 (Day 5 ± 1), primary endpoint
[6] = Clostridium perfringens, N 21, agar dilution

For N[C@@H]1CCCCN(c2c(F)cc3c(=O)c(C(=O)O)cn(C4CC4)c3c2Cl)C1 [Besifloxacin, (R)-(+)-(3-amino-2,3,4,5,6,7-hexahydro-1H-azepin-1-yl)-8-chloro-1-cyclopropyl-6-fluoro-1,4,-dihydro-4-oxo-3-quinolinecarboxylic acid], the Cmax ([1]; non-excretory organs, topical or ocular, nonclinical, repeated (BID, TID, QID) topical ocular administration) was < 25 ng/g, the half-life ([1]; ocular tissues, topical or ocular, nonclinical, topical ocular 0.6% suspension, read-out: apparent half-life of elimination from ocular tissues) was > 5 h and the “peak plasma besifloxacin concentration, on average” value ([1]; first of two groups not named ('respectively')) was 7.6 ng/mL. The “peak plasma besifloxacin concentration, on average” value ([1]; second of two groups not named ('respectively')) was 9.2 ng/mL, the “bactericidal activity in time-kill studies” value [2] was “confirmed the bactericidal activity” and the “Clinical Resolution (2 indices), No” value ([3]; Visit 2 (Day 5 ± 1)) was 105 (41.7) n (%). For the same compound, the “Microbial Eradication, No” value ([3]; Visit 2 (Day 5 ± 1)) was 17 (6.7) n (%), the “Clinical Resolution (2 indices), Yes” value [3, 5] was 147 (58.3) n (%) and the “Microbial Eradication, Yes” value [3, 5] was 235 (93.3) n (%). The “Clinical Resolution (2 indices), No” value ([3]; Visit 3 (Day 8 or 9)) was 39 (15.5) n (%), the “Clinical Resolution (2 indices), Yes” value ([3]; Visit 3 (Day 8 or 9)) was 213 (84.5) n (%) and the “Microbial Eradication, No” value ([3]; Visit 3 (Day 8 or 9)) was 32 (12.7) n (%). The “Microbial Eradication, Yes” value ([3]; Visit 3 (Day 8 or 9)) was 220 (87.3) n (%), the MIC50 ([4]; Acinetobacter baumannii, Acinetobacter baumanii Quinolone-R, N 5, read-out: MIC50) was > 8 µg/mL and the MIC50 ([4]; Acinetobacter baumannii, Acinetobacter baumanii Quinolone-S, N 43, read-out: MIC50) was 0.5 µg/mL (≈ 1.27 µM). The MIC90 ([4]; Acinetobacter baumannii, Acinetobacter baumanii Quinolone-S, N 43, read-out: MIC90) was 2 µg/mL (≈ 5.08 µM), the MIC50 ([4]; Acinetobacter baumannii-calcoaceticus Quinolone-R, N 10, read-out: MIC50) was > 8 µg/mL and the MIC90 ([4]; Acinetobacter baumannii-calcoaceticus Quinolone-R, N 10, read-out: MIC90) was > 8 µg/mL. For the same compound, the “MIC Range” value ([4]; Acinetobacter baumannii-calcoaceticus Quinolone-S, N 23) was 0.12 to 4 µg/mL, the MIC50 ([4]; Acinetobacter baumannii-calcoaceticus Quinolone-S, N 23, read-out: MIC50) was 0.5 µg/mL (≈ 1.27 µM) and the “MIC Range” value ([4]; Acinetobacter lwoffii, N 13) was 0.12 to 2 µg/mL. The MIC50 ([4]; Acinetobacter lwoffii, N 13, read-out: MIC50) was 0.5 µg/mL (≈ 1.27 µM), the MIC90 ([4]; Acinetobacter lwoffii, N 13, read-out: MIC90) was 0.5 µg/mL (≈ 1.27 µM) and the MIC50 ([4]; Bacteroides fragilis, N 20, agar dilution, read-out: MIC50) was 0.5 µg/mL (≈ 1.27 µM). For the same compound, the MIC90 ([4]; Bacteroides fragilis, N 20, agar dilution, read-out: MIC90) was 1 µg/mL (≈ 2.54 µM), the “MIC Range” value ([4]; Citrobacter koser Quinolone-R, N 1) was >8 µg/mL and the “MIC Range” value ([4]; Citrobacter koser Quinolone-S, N 99) was 0.03 to 4 µg/mL. For the same compound, the MIC90 ([4]; Citrobacter koser Quinolone-S, N 99, read-out: MIC90) was 0.25 µg/mL (≈ 0.635 µM), the MIC50 [4, 6] was 0.25 µg/mL (≈ 0.635 µM) and the MIC90 [4, 6] was 0.25 µg/mL (≈ 0.635 µM). For the same compound, the “MIC Range” value [4, 6] was 0.12 to 0.25 µg/mL, the “MIC Range” value ([4]; Corynebacterium species, N 30, agar dilution) was “≦0.06-2 μg/mL” and the MIC50 ([4]; Corynebacterium species, N 30, agar dilution, read-out: MIC50) was 0.25 µg/mL (≈ 0.635 µM). The MIC90 ([4]; Corynebacterium species, N 30, agar dilution, read-out: MIC90) was 2 µg/mL (≈ 5.08 µM), the MIC50 ([4]; Cutibacterium acnes, Propionibacterium acnes, N 21, agar dilution, read-out: MIC50) was 0.25 µg/mL (≈ 0.635 µM) and the MIC90 ([4]; Cutibacterium acnes, Propionibacterium acnes, N 21, agar dilution, read-out: MIC90) was 0.25 µg/mL (≈ 0.635 µM). For the same compound, the “MIC Range” value ([4]; Enterobacter aerogene Quinolone-S, N 37) was 0.12 to 4 µg/mL, the MIC50 ([4]; Enterobacter aerogene Quinolone-S, N 37, read-out: MIC50) was 0.25 µg/mL (≈ 0.635 µM) and the MIC90 ([4]; Enterobacter aerogene Quinolone-S, N 37, read-out: MIC90) was 2 µg/mL (≈ 5.08 µM). For the same compound, the “MIC Range” value ([4]; Enterobacter cloacae Quinolone-R, N 1) was >8 µg/mL, the “MIC Range” value ([4]; Enterobacter cloacae Quinolone-S, N 58) was 0.12 to 2 µg/mL and the MIC50 ([4]; Enterobacter cloacae, Enterobacter cloacae Quinolone-S, N 58, read-out: MIC50) was 0.25 µg/mL (≈ 0.635 µM). For the same compound, the MIC90 ([4]; Enterobacter cloacae, Enterobacter cloacae Quinolone-S, N 58, read-out: MIC90) was 0.5 µg/mL (≈ 1.27 µM), the “MIC Range” value ([4]; Fusobacterium species, N 21, agar dilution) was 0.12 to 8 µg/mL and the MIC50 ([4]; Fusobacterium species, N 21, agar dilution, read-out: MIC50) was 0.25 µg/mL (≈ 0.635 µM). For the same compound, the MIC90 ([4]; H. influenzae, value used for PK/PD ratios of Study 424) was “^bMIC90: H. influenzae ≦0.06 μg/mL”, the “MIC Range” value ([4]; Haemophilus influenzae (all phenotypes), N 243) was “≦0.004-0.25 μg/mL” and the “MIC Range” value ([4]; Haemophilus influenzae β-lactamase+, N 118) was 0.008 to 0.12 µg/mL. The “MIC Range” value ([4]; Haemophilus influenzae β-lactamase−, N 100) was “≦0.004-0.12 μg/mL”, the MIC90 ([4]; Haemophilus influenzae, H. influenzae, value used for PK/PD ratios of Study 424, read-out: MIC90) was ≤ 0.06 µg/mL and the MIC50 ([4]; Haemophilus influenzae, Haemophilus influenzae (all phenotypes), N 243, read-out: MIC50) was 0.03 µg/mL (≈ 0.0762 µM). The MIC50 ([4]; Haemophilus influenzae, Haemophilus influenzae β-lactamase+, N 118, read-out: MIC50) was 0.03 µg/mL (≈ 0.0762 µM), the MIC50 ([4]; Haemophilus influenzae, Haemophilus influenzae β-lactamase− Ampicillin-R, N 25, read-out: MIC50) was 0.12 µg/mL (≈ 0.305 µM) and the MIC90 ([4]; Haemophilus influenzae, Haemophilus influenzae β-lactamase− Ampicillin-R, N 25, read-out: MIC90) was 0.25 µg/mL (≈ 0.635 µM). For the same compound, the MIC50 ([4]; Haemophilus influenzae, Haemophilus influenzae β-lactamase−, N 100, read-out: MIC50) was 0.03 µg/mL (≈ 0.0762 µM), the “MIC Range” value ([4]; Key Organisms Quinolone-S, N 894) was “≦0.004-1 μg/mL” and the MIC50 ([4]; Key Organisms Quinolone-S, N 894, read-out: MIC50) was 0.06 µg/mL (≈ 0.152 µM). It also gave an MIC90 ([4]; Key Organisms Quinolone-S, N 894, read-out: MIC90) of 0.12 µg/mL (≈ 0.305 µM), an MIC50 ([4]; Key Organisms combined, N 1205) of 0.06 µg/mL and an MIC90 ([4]; Key Organisms combined, N 1205, read-out: MIC90) of 1 µg/mL. For the same compound, the “MIC Range” value ([4]; Klebsiella oxytoca Quinolone-R, N 5) was 1 to 8 µg/mL, the MIC50 ([4]; Klebsiella oxytoca Quinolone-R, N 5, read-out: MIC50) was 8 µg/mL (≈ 20.3 µM) and the “MIC Range” value ([4]; Klebsiella oxytoca Quinolone-S, N 45) was 0.06 to 1 µg/mL. The MIC90 ([4]; Klebsiella oxytoca, Klebsiella oxytoca Quinolone-S, N 45, read-out: MIC90) was 0.5 µg/mL (≈ 1.27 µM), the MIC50 ([4]; Legionella pneumophila, N 50) was 0.03 µg/mL (≈ 0.0762 µM) and the MIC90 ([4]; Legionella pneumophila, N 50) was 0.03 µg/mL (≈ 0.0762 µM).
